Source: ChEMBL document CHEMBL1201862, “PubChem BioAssay data set” (2004)
Activity calls are given as the source filed them.

Assays:
[1] = target: Beta-2 adrenergic receptor (Homo sapiens, UniProt P07550); assay: beta2AR agonists driving receptor internalization, dose response, cell-based, FAP fluorogen, flow cytometry, cherry pick 1 (AID 588763); type: functional
[2] = target: Voltage-gated inwardly rectifying potassium channel KCNH2 (Homo sapiens, UniProt Q12809); settings: Potency;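 further: confirmatory quantitative high-throughput screen measuring inhibition of hERG channel activity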
HEK293 = assay: cells; type: functional, cell-based; settings: Homo sapiens
[3] = target: T1, Nuclear receptor subfamily 0 group B member 1 (Homo sapiens, UniProt P51843); assay: Luminescence-based cell-based high throughput dose response assay for inhibitors of the orphan nuclear receptor subfamily 0, group B, member 1 (DAX1; NR0B1). [Related pubchem assays (depositor defined):AID504766, AID504790]; type: functional
T1 sequence (P51843 whole entry): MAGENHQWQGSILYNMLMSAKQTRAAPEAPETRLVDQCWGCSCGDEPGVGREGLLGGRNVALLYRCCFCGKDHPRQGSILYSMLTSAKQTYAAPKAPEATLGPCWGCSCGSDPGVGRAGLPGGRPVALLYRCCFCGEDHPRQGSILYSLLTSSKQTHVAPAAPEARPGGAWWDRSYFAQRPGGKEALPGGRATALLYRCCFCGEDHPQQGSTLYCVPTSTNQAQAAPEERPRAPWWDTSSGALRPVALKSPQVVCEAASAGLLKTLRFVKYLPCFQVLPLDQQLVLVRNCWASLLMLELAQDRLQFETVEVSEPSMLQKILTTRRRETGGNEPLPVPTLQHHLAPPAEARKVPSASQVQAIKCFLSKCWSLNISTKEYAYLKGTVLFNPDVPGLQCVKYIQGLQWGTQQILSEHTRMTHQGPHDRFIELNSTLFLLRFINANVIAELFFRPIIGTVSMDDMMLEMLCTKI

[4] = target: Neuropeptides B/W receptor type 1 (Homo sapiens, UniProt P48145); assay: GPR7 antagonist potency, late-stage follow-up, cell-based, fluorescence, dose response, set 5 (AID 588566); type: functional
[5] = target: Melanin-concentrating hormone receptor 1 (Homo sapiens, UniProt Q99705); assay: Late-stage fluorescence-based counterscreen for antagonists of the G-protein coupled receptor 7 (GPR7): cell-based dose response assay to identify antagonists of the melanin-concentrating hormone receptor 1 (MCHR1) Set 5.; type: functional
[6] = target: T2, Apoptotic protease-activating factor 1 (Homo sapiens, UniProt O14727); assay: SAR analysis of small molecule Activators of Apaf-1 in a Fluorescent assay.; type: functional; settings: read-out: EC50_Mean;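 further: caspase-3 cleavage of fluorogenic Rh110 DEVD substrate downstream of apoptosome activation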
T2 sequence (O14727 whole entry): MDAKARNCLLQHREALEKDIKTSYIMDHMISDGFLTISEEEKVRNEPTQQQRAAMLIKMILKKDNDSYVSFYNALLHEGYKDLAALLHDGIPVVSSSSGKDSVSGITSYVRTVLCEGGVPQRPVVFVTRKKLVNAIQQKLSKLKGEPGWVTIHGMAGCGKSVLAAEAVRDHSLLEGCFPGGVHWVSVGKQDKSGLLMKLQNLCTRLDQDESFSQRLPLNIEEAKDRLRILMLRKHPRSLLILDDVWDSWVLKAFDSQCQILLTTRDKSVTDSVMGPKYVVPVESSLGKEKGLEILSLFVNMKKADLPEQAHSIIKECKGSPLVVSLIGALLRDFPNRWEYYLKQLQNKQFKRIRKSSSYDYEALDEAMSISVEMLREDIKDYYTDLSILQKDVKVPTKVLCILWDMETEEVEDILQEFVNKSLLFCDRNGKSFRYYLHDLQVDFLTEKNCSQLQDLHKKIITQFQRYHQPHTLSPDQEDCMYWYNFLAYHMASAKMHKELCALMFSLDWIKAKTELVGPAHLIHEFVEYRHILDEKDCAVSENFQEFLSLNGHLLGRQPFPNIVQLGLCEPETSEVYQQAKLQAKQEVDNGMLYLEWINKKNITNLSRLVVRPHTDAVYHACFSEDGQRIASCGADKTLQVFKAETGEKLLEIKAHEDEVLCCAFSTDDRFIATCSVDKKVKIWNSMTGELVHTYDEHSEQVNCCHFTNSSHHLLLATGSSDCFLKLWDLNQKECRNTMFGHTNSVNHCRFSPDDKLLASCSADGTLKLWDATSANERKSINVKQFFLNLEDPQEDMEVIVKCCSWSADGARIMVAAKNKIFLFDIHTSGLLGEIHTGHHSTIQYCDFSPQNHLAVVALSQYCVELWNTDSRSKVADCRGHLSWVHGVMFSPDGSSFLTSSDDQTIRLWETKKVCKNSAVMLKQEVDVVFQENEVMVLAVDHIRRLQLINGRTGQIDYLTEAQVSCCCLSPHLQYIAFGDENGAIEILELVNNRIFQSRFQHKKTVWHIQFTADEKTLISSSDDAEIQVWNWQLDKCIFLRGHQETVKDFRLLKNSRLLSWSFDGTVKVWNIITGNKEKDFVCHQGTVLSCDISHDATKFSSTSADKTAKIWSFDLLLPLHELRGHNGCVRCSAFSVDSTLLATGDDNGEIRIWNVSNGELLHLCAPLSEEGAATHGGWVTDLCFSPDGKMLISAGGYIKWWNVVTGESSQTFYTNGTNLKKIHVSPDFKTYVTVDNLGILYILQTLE

Phospholipase A2 = Phospholipase A2 (Homo sapiens, UniProt P04054); type: functional;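 further: confirmatory dose-response counterscreen on phospholipase A2, testing hits that came from an ultra-high-throughput screen for ATG4B inhibitors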
Cysteine protease ATG4B = Cysteine protease ATG4B (Homo sapiens, UniProt Q9Y4P1); type: functional;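 further: Fluorescence-based dose-response confirmation assay measuring inhibition of ATG4B activity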
[7] = target: Casein kinase I isoform delta (Homo sapiens, UniProt P48730); type: functional;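 further: measured as one member (CSNK1D) of a kinome panel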
[8] = target: Mitogen-activated protein kinase 13 (Homo sapiens, UniProt O15264); type: functional
Vero = Vero cell cytotoxicity, cytotoxicity control for flavivirus capping enzyme inhibitors (AID 588742); type: functional; settings: Chlorocebus sabaeus
[9] = growth suppression of beta-catenin-knockout colon cells, dose response, cell-based, HCT116, human colon tumor (AID 1045); type: functional;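 further: HCT116 colon tumor cells with beta catenin knocked out; cells exposed to compound for 60 hours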
[10] = growth suppression of PTEN-null colon cells, dose response, cell-based, HCT116 PTEN knockout (AID 1047); type: functional;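 further: HCT116 colon tumor cells with PTEN knocked out; cells exposed to compound for 60 hours before readout; potency for loss of cell viability measured by luminescence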
Hexokinase-1 = target: T3, Hexokinase-1 (Homo sapiens, UniProt P19367); assay: HK1 enzyme inhibition by HKDC1 hits, SAR follow-up, selectivity assay for HKDC1 inhibitor project, biochemical, set 2, resazurin fluorescence coupled readout (AID 588356); type: functional
T3 sequence (P19367 whole entry): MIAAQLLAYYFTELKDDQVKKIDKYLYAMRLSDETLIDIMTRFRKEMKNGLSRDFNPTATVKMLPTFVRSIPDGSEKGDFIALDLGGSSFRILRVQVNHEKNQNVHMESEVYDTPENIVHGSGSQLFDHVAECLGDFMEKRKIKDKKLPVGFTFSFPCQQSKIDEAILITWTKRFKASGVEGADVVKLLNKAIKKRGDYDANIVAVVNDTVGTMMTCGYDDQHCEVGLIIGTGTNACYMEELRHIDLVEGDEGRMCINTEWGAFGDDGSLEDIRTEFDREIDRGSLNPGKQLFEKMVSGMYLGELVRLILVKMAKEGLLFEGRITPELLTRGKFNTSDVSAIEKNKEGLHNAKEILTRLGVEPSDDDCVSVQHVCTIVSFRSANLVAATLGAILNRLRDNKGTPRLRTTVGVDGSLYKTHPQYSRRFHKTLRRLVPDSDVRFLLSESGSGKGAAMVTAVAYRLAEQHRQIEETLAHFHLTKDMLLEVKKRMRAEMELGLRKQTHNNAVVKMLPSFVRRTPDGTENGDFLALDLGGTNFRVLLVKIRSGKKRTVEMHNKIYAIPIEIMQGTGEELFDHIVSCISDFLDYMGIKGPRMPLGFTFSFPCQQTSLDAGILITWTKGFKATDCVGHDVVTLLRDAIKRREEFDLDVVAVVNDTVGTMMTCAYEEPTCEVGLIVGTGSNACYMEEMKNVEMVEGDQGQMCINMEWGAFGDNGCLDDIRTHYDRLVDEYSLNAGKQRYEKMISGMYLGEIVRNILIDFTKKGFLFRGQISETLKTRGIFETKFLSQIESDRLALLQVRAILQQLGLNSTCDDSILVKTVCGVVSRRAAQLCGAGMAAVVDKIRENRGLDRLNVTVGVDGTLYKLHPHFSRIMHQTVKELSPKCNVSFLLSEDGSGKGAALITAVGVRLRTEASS

Hexokinase HKDC1 = target: T4, Hexokinase HKDC1 (Homo sapiens, UniProt Q2TB90); assay: HKDC1 hexokinase inhibitors, SAR follow-up, biochemical, set 2 (AID 588355); type: functional
T4 sequence (Q2TB90 whole entry): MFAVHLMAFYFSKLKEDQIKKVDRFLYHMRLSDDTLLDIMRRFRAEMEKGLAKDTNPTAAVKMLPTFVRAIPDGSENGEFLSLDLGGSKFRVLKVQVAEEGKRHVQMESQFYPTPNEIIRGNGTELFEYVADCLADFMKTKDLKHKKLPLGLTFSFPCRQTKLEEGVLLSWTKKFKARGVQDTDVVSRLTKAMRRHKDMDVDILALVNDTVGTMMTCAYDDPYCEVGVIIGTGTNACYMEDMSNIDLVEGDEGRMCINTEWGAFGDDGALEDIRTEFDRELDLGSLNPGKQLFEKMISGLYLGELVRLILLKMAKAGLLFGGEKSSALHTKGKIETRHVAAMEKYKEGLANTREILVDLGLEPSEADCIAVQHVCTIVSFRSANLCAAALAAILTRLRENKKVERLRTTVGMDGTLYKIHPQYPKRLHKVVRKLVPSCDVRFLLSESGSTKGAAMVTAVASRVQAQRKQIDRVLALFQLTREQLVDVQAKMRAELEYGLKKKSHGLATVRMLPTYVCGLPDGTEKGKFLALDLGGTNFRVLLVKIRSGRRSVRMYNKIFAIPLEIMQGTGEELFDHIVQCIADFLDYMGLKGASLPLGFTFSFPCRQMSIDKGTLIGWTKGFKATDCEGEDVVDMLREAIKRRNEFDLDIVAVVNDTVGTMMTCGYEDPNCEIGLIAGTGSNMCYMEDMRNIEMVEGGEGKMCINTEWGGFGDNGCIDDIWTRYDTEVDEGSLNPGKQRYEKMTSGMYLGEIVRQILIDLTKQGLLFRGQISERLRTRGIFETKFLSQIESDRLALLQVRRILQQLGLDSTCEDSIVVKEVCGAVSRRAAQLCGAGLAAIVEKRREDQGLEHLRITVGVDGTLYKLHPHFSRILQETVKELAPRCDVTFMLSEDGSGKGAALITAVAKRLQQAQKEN

Melanin-concentrating hormone receptor 1, sequence (Q99705 whole entry): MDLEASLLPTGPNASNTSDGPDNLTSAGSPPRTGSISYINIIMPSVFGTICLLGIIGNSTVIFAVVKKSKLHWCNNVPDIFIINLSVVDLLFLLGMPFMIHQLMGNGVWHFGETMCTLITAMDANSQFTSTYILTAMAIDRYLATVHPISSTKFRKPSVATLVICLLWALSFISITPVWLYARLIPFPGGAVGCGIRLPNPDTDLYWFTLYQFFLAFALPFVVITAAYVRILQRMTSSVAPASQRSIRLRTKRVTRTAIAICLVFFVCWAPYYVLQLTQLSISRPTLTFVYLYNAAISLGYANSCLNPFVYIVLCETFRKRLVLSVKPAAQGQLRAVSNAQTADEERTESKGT
Neuropeptides B/W receptor type 1, sequence (P48145 whole entry): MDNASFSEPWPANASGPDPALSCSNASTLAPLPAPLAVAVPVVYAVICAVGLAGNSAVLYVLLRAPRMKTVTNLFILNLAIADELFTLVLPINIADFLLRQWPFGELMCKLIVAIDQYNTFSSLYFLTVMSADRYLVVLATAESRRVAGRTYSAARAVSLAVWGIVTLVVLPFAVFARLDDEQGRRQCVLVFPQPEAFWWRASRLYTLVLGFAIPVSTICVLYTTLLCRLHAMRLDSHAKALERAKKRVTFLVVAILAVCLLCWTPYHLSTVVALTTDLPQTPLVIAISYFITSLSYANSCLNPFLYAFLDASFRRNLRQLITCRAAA
Beta-2 adrenergic receptor, sequence (P07550 whole entry): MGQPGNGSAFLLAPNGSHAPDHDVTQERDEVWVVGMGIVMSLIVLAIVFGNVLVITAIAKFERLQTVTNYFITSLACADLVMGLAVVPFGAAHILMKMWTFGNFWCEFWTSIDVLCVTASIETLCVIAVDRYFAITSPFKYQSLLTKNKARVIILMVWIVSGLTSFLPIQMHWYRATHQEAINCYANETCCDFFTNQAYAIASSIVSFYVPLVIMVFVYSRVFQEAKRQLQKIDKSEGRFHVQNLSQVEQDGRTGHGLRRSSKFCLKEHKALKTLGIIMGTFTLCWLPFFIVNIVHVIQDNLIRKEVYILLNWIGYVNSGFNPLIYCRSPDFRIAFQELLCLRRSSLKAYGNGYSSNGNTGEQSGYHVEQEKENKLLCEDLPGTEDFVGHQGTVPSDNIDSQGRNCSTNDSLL
Casein kinase I isoform delta, sequence (P48730 whole entry, canonical isoform): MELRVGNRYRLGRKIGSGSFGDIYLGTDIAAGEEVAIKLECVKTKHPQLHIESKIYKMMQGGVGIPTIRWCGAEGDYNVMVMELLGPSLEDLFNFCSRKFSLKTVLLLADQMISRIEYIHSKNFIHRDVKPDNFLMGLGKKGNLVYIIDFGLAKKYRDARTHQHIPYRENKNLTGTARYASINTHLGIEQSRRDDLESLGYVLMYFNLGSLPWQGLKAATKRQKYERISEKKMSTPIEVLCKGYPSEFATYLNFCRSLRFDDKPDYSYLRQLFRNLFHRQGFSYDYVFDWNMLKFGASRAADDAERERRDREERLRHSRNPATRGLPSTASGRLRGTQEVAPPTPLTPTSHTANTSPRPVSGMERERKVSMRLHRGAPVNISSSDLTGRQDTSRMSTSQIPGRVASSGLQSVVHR
Mitogen-activated protein kinase 13, sequence (O15264 whole entry): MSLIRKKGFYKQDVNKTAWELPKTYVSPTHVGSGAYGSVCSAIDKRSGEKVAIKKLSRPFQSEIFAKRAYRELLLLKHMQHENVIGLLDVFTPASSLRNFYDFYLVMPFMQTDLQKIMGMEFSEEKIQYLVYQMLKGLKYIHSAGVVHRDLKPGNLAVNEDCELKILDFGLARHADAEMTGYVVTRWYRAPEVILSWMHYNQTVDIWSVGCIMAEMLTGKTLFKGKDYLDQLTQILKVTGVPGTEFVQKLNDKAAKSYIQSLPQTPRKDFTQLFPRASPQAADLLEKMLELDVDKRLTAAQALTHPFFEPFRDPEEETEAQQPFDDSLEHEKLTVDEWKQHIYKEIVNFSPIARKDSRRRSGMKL
Phospholipase A2, sequence (P04054 whole entry): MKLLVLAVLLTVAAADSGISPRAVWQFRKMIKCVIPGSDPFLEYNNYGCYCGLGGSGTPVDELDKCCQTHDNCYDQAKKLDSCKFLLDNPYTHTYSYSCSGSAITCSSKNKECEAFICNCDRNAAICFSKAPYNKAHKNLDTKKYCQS
Cysteine protease ATG4B, sequence (Q9Y4P1 whole entry, canonical isoform): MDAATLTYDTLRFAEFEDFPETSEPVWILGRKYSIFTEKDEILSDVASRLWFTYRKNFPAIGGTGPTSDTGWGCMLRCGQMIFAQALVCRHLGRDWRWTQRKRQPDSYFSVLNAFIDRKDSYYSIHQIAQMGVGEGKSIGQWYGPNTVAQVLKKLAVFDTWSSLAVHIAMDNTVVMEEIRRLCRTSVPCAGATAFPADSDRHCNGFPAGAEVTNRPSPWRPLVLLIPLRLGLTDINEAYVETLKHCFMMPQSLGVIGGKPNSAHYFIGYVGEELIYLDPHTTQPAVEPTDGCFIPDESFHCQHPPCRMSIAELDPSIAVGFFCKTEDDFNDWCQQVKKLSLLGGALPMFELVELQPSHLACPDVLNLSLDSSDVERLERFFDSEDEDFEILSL
Voltage-gated inwardly rectifying potassium channel KCNH2, sequence (Q12809 whole entry): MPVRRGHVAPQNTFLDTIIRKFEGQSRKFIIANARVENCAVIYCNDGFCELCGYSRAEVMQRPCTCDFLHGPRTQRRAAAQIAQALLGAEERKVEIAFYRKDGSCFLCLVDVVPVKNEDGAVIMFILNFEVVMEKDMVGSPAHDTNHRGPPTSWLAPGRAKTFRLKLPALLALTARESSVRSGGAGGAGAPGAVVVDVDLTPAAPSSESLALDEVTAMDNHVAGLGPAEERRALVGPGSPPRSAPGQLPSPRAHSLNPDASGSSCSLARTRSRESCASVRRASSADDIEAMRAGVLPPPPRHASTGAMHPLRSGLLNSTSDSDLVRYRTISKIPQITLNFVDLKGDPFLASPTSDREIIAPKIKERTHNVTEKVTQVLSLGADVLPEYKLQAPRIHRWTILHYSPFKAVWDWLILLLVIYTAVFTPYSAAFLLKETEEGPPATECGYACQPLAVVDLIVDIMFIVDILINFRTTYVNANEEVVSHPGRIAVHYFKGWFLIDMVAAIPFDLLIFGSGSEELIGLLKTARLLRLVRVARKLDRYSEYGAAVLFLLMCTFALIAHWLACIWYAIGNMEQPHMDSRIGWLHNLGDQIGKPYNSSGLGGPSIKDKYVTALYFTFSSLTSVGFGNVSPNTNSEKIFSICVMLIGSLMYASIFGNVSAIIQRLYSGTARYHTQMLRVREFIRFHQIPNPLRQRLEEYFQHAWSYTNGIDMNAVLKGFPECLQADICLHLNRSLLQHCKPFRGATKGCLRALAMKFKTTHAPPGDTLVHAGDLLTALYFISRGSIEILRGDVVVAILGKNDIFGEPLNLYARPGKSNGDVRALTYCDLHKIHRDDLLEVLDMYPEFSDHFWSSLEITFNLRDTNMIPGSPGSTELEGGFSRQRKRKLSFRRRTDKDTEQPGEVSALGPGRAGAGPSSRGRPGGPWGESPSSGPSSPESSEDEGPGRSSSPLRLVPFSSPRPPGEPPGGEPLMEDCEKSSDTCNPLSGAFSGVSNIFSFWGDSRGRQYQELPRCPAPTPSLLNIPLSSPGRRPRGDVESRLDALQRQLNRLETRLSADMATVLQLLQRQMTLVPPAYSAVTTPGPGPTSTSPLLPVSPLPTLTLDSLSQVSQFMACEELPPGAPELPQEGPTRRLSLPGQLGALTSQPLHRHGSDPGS

SMILES: O=C(CN1C(=O)CCC1=O)Nc1nc(-c2nc3ccccc3s2)cs1
- EC50 [1]: 0.0444 µM (active)

SMILES: CCOP(=S)(OCC)Oc1nc(Cl)c(Cl)cc1Cl [CHLORPYRIFOS]
- AC50 [2]: 50.1 µM (inconclusive)

SMILES: CC(C)(C)c1ccc(-c2noc(-c3ccno3)n2)cc1
- IC50 (HEK293): > 67.5 µM (inactive)
- IC50 [3]: > 67.5 µM (inactive)

SMILES: CCOC(=O)c1nn(-c2ccc(C(C)C)cc2)c(=O)c(Oc2ccc(OC)cc2)c1Cl
- IC50 [4]: > 20 µM (inactive)
- IC50 [5]: > 20 µM (inactive)

SMILES: O=C(C1CCCCN1C1c2ccccc2-c2ccccc21)N1CCN(c2ccc([N+](=O)[O-])cc2)CC1 (stereo not given)
- IC50 [4]: > 20 µM (inactive)
- IC50 [5]: > 20 µM (inactive)

SMILES: COc1ccc(C(=O)NC(CCc2ccccc2)CC(=O)O)cc1 (stereo not given)
- EC50 [6]: > 100 µM (inactive)

SMILES: Cc1ccc(-c2cc(C(=O)N3CCc4ccccc4C3)no2)cc1
- IC50 (Phospholipase A2): 8.83 µM (active)
- IC50 (Cysteine protease ATG4B): 13.3 µM (active)

SMILES: CC1(N2CCC(c3ccccc3)CC2)CCN(C(=O)CNc2ncnc3cc(Cl)c(Cl)cc23)C1 (stereo not given)
- Ki [7]: 3.16 µM (active)

SMILES: N#Cc1ncc2nc1OCCCCCOc1cc(OCCCO)c(Cl)cc1NC(=O)N2
- Ki [8]: > 7.94 µM (inactive)

SMILES: Cc1nc2ncccn2c1-c1csc(NCc2ccco2)n1
- CC50 (Vero): > 40 µM (active)

SMILES: CN(Cc1ccccc1F)c1nc(-c2cccnc2)nc2ccccc12
- EC50 [1]: 6.08 µM (active)

SMILES: Cc1[nH]n(-c2ccccc2)c(=O)c1N=Nc1nccs1
- EC50 [9]: 4.29 µM (active)
- CC50 (Vero): > 40 µM (active)
- EC50 [10]: 5.42 µM (active)

SMILES: CC(=O)NC1C(=O)N(Cc2ccccc2)c2ccc(Br)cc21 (stereo not given)
- IC50 (Hexokinase-1): > 80 µM (inactive)
- IC50 (Hexokinase HKDC1): > 80 µM (inactive)
